Consider seven compounds from ChEMBL document CHEMBL5465560, “Selectivity Literature for EUbOPEN Chemogenomic Library” (2024).

In experiment [1] the target is T1, cGMP-dependent protein kinase 2 (Homo sapiens) (UniProt Q13237).
T1 sequence (whole entry): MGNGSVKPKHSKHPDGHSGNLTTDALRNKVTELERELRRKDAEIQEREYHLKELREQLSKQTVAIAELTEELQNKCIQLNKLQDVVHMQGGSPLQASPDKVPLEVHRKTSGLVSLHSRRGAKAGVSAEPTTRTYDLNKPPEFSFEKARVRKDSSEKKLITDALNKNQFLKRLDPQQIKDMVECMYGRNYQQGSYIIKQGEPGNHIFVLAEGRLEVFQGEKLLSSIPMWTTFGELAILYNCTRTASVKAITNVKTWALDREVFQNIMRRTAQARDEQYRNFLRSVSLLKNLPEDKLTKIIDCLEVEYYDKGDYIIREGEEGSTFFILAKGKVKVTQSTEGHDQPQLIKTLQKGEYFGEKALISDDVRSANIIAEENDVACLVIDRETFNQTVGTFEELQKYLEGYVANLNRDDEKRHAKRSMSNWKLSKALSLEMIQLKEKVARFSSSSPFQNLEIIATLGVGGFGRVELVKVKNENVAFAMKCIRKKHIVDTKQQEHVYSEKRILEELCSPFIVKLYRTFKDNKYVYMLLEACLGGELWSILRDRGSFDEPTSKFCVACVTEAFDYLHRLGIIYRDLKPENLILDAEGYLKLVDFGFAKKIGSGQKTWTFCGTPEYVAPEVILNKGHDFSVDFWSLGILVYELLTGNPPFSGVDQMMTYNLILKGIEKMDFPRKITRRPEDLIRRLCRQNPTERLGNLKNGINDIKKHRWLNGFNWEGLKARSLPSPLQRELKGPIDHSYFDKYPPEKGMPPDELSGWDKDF
As to the kind of experiment: Selectivity interaction (Kinase panel (Z-LYTE Assay)) EUB0001632a PRKG2. Conditions: at 10 µM.

For experiment [2], the target named is Mitogen-activated protein kinase 14 (Homo sapiens, UniProt Q16539). As to the kind of experiment: Selectivity interaction (Kinase panel (KiNativ target engagement assay in Jurkat cells)) EUB0001635a MAPK14. Conditions: Selectivity number of off-targets 0.0, Selectivity number of targets 233.0, Source Knowledge https://www.sciencedirect.com/science/article/pii/S2451945619300674?via%3Dihub, at 1 µM. It is filed as cell-based.

In experiment [3] the test system is Tyrosine-protein kinase ABL1 (Homo sapiens), P00519 [F317L]. The experiment can be described thus: Selectivity interaction (KinomeScan (DiscoverX)) EUB0000607a ABL1. Conditions: at 10 µM.
Experiment [4] deals with Vascular endothelial growth factor receptor 1 (Homo sapiens) (UniProt P17948). As to the kind of experiment: Selectivity interaction (KinomeScan (DiscoverX)) EUB0000666a FLT1. Conditions: at 10 µM.
Experiment [5] has as its target cAMP-dependent protein kinase catalytic subunit alpha (Homo sapiens, UniProt P17612). As to the kind of experiment: Selectivity interaction (KinomeScan (DiscoverX)) EUB0000655a PRKACA. Conditions: at 10 µM.
In experiment [6] the target is T2, Serine/threonine-protein kinase Nek5 (Homo sapiens) (UniProt Q6P3R8).
T2 sequence (whole entry): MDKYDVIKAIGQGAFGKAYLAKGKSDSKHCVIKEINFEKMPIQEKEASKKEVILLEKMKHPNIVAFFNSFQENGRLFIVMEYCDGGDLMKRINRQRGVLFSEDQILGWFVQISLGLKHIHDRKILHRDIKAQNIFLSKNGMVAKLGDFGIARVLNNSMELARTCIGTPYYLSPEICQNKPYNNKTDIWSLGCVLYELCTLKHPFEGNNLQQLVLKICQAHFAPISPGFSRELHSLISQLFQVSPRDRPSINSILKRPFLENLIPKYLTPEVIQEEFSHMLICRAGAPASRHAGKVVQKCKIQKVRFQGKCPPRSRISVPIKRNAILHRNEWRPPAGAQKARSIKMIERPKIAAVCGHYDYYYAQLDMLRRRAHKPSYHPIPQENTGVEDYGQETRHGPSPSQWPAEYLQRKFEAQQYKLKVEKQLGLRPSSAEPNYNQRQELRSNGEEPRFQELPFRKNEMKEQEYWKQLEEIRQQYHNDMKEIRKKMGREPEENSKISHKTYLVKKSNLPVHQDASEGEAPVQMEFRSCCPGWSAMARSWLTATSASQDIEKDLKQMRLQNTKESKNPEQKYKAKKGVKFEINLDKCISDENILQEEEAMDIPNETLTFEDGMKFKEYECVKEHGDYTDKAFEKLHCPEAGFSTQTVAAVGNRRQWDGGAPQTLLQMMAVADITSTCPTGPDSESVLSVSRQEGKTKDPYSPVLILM
As to the kind of experiment: Selectivity interaction (KinomeScan (DiscoverX)) EUB0000655a NEK5. Conditions: at 10 µM.

In experiment [7] the target is Serine/threonine-protein kinase pim-2 (Homo sapiens, UniProt Q9P1W9). The experiment can be described thus: Selectivity interaction (KinomeScan (DiscoverX)) EUB0001049a PIM2. Conditions: at 1 µM.
For experiment [8], the target named is T3, Dual specificity tyrosine-phosphorylation-regulated kinase 4 (Homo sapiens) (UniProt Q9NR20).
T3 sequence (whole entry): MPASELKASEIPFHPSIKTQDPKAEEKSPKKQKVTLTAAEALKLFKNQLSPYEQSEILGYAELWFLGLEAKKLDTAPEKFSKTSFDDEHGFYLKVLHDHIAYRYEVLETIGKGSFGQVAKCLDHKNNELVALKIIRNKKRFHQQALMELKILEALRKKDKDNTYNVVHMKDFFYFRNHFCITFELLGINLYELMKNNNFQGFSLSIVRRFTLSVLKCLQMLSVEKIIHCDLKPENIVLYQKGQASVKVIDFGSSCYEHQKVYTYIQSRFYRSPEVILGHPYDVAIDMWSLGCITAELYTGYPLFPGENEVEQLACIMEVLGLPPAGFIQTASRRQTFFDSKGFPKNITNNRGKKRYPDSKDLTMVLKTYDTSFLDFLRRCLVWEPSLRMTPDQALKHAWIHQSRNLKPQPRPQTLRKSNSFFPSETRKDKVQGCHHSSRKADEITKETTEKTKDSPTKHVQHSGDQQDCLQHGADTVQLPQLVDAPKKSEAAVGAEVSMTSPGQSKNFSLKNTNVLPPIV
The experiment can be described thus: Selectivity interaction (ProQinase) EUB0000171b DYRK4.

Another experiment addresses Ephrin type-A receptor 4 (Homo sapiens, UniProt P54764). The experiment can be described thus: Selectivity interaction (ProQinase) EUB0000171b EPHA4.
The subject of experiment [9] is Platelet-derived growth factor receptor alpha (Homo sapiens), P16234 [T674I]. The experiment can be described thus: (§1) Selectivity interaction (ProQinase) EUB0000171b PDGFRA.
The target in experiment [10] is Platelet-derived growth factor receptor alpha (Homo sapiens, UniProt P16234). The description is as §1.
Experiment [11] concerns Platelet-derived growth factor receptor alpha (Homo sapiens), P16234 [V561D]. The experiment is described as §1.
Experiment [12] deals with Platelet-derived growth factor receptor alpha (Homo sapiens), P16234 [D842V]. The experiment is described as §1.
Experiment [13] concerns the target SRSF protein kinase 3 (Homo sapiens) (UniProt Q9UPE1). As to the kind of experiment: Selectivity interaction (ProQinase) EUB0000171b SRPK3.

Platelet-derived growth factor receptor alpha (Homo sapiens), P16234 [D842V], sequence (P16234 whole entry D842V): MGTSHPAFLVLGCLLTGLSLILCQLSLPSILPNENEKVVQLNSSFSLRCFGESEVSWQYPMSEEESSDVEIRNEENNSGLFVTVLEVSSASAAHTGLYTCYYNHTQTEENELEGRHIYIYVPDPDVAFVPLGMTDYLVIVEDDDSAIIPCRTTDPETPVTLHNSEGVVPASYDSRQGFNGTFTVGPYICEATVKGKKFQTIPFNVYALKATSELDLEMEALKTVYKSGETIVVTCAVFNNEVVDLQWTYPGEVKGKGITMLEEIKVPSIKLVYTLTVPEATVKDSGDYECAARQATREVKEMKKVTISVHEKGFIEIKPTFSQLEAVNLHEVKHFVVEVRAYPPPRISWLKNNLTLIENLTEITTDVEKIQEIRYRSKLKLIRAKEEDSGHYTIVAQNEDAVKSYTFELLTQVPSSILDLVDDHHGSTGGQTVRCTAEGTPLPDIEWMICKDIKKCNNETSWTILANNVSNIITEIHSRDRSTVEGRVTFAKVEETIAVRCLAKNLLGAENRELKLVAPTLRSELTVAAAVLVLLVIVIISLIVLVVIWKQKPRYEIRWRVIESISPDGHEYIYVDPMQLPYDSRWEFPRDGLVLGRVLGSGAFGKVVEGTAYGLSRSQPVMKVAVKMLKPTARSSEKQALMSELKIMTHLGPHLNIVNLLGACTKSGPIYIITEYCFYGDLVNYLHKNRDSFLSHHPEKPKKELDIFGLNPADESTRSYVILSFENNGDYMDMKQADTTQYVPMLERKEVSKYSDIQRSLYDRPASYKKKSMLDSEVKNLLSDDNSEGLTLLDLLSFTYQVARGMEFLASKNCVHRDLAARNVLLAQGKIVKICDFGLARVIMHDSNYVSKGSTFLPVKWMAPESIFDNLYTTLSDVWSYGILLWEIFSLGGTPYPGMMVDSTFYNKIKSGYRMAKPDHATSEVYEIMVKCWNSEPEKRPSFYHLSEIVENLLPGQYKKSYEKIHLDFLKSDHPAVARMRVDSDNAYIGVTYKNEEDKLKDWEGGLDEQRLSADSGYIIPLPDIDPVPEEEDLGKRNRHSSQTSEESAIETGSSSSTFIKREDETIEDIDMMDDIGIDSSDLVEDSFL
SRSF protein kinase 3 (Homo sapiens), sequence (Q9UPE1 whole entry): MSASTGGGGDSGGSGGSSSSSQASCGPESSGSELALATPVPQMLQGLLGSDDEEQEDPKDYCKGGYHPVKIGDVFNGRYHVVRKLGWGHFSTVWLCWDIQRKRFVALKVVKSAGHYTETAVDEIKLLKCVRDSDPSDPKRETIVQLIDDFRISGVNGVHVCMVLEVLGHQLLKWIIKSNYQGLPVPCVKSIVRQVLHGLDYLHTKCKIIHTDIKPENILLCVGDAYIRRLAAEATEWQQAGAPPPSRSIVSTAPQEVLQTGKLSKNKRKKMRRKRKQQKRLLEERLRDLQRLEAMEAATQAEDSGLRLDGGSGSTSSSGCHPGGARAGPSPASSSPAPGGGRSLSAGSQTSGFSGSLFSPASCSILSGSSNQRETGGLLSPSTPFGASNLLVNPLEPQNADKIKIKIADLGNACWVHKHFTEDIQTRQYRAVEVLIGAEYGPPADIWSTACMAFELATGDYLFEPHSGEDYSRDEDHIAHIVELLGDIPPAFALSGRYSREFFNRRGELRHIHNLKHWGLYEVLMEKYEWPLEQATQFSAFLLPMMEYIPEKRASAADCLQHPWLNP
Platelet-derived growth factor receptor alpha (Homo sapiens), P16234 [V561D], sequence (P16234 whole entry V561D): as the sequence (P16234 whole entry D842V) above, with V561D, V842D counted along it
Ephrin type-A receptor 4, sequence (P54764 whole entry): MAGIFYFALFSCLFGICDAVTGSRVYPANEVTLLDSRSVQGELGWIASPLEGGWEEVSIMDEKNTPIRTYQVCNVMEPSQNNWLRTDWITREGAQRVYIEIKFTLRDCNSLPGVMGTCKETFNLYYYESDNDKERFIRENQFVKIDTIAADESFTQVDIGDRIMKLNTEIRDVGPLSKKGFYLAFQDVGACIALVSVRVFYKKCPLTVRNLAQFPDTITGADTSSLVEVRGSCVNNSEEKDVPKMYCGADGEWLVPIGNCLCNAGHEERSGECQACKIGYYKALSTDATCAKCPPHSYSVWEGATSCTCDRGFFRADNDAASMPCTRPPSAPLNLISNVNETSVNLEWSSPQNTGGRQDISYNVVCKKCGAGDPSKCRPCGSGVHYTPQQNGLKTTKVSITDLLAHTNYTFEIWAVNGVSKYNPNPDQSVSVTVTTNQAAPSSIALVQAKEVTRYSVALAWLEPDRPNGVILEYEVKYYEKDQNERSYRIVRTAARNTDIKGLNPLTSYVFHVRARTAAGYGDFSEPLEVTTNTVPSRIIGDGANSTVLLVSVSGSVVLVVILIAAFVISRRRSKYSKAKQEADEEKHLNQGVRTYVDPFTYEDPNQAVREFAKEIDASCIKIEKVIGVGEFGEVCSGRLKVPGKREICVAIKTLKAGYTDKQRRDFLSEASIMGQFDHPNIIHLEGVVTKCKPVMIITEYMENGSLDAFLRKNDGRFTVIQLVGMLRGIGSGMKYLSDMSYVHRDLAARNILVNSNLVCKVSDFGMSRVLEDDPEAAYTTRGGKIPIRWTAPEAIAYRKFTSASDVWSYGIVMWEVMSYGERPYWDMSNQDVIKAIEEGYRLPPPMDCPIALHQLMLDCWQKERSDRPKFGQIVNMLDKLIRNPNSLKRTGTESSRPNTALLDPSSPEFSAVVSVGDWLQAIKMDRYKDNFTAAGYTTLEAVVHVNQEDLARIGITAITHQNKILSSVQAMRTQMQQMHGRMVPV
Platelet-derived growth factor receptor alpha (Homo sapiens), P16234 [T674I], sequence (P16234 whole entry T674I): as the sequence (P16234 whole entry D842V) above, with T674I, V842D counted along it
Platelet-derived growth factor receptor alpha, sequence (P16234 whole entry): as the sequence (P16234 whole entry D842V) above, with V842D counted along it
Vascular endothelial growth factor receptor 1 (Homo sapiens), sequence (P17948 whole entry): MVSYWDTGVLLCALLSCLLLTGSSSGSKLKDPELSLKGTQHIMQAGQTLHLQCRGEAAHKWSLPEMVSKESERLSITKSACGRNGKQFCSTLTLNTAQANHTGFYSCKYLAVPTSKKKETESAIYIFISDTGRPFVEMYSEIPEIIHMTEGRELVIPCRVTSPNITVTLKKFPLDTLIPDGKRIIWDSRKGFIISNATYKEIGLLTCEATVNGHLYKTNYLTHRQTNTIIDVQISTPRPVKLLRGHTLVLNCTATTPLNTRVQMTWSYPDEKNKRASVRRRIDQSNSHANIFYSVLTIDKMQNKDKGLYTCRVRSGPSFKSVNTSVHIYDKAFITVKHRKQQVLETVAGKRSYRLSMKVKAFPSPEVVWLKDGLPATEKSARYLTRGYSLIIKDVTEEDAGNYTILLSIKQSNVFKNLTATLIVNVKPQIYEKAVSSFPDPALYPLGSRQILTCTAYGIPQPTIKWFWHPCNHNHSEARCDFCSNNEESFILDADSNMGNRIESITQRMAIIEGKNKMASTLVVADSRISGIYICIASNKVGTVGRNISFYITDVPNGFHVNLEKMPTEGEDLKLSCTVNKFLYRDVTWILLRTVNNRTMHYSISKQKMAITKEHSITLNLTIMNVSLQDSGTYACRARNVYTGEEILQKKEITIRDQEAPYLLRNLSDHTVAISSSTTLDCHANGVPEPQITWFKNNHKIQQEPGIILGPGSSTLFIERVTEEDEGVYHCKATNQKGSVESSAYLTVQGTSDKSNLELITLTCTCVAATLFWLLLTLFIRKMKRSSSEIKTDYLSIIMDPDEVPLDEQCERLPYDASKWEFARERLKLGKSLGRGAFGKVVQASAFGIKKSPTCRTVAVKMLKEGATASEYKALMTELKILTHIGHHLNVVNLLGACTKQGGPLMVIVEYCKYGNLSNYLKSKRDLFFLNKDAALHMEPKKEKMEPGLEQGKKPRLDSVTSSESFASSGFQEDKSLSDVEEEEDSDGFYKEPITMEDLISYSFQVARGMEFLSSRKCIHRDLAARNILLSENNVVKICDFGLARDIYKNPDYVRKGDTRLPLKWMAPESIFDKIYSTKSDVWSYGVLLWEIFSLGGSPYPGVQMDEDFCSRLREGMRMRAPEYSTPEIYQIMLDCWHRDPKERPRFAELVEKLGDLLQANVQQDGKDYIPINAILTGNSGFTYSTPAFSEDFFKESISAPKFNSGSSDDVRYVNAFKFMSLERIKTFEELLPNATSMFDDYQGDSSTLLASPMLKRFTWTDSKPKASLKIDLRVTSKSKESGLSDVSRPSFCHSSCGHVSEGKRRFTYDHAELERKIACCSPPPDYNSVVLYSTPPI
Serine/threonine-protein kinase pim-2, sequence (Q9P1W9 whole entry, looked up): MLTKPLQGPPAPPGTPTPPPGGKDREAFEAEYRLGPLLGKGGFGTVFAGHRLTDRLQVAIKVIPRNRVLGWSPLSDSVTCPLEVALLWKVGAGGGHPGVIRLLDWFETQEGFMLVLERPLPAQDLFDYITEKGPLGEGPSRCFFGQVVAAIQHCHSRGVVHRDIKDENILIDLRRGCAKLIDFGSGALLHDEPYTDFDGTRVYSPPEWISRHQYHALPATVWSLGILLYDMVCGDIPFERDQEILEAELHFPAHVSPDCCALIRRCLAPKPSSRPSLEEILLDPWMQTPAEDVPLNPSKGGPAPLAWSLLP
Mitogen-activated protein kinase 14, sequence (Q16539 whole entry): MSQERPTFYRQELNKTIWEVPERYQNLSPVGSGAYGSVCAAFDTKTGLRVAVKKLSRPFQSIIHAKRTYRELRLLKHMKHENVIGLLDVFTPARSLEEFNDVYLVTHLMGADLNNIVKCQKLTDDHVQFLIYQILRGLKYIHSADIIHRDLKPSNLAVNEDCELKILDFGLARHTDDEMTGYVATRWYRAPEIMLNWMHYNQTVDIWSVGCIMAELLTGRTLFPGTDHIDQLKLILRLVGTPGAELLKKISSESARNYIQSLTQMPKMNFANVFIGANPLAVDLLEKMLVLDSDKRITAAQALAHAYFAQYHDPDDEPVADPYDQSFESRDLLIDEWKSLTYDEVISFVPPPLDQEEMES

Take `Cn1cc(-n2cnc3c(NCc4nc5cc(Cl)c(Cl)cc5[nH]4)nc(N4CCOCC4)nc32)cn1`: the % of control in [1] is -2.3%.
`C=CC(=O)Nc1ccc(C(=O)Nc2[nH]nc3c2CN(C(=O)N[C@H](CN(C)C)c2ccccc2)C3(C)C)cc1`: in [2], the % of engagement is -12.8%.
As for `CNC(=O)Nc1ccc(-c2nc(N3CC4CCC(C3)O4)c3cnn(C4CCC5(CC4)OCCO5)c3n2)cc1`, the % of control in experiment [3] is 96%.
For `O=C(NOC[C@H](O)CO)c1ccc(F)c(F)c1Nc1ccc(I)cc1F`, the % of control in experiment [4] stood at 94%.
As for `CN(C)CCOc1ccc(-c2nc(-c3ccncc3)c(-c3ccc4c(c3)CC/C4=N\O)[nH]2)cc1`, the % of control in experiment [5] worked out at 67%; in experiment [6] it was 74%.
`COc1cc(Nc2nc(C)cc(-c3cnn4nc(OC)ccc34)n2)cc(C(F)(F)F)c1`: in experiment [7], the % of control turned out to be 95%.
Turning to `C=CC(=O)Nc1cccc(C(=O)Nc2ccc(Nc3cc(-c4[nH]c(SC)nc4C)ccn3)cc2)c1`, the % of control came out at 90% in experiment [8] (at 1 µM); 84% in [8] (at 5 µM); 93% on Ephrin type-A receptor 4 (at 1 µM); 78% at Ephrin type-A receptor 4 (at 5 µM); 96% in [9] (at 1 µM); 84% in experiment [9] (at 5 µM). For the same compound, the % of control in [10] (at 1 µM) worked out at 97%; in experiment [10] (at 5 µM), 72%; in experiment [11] (at 1 µM) it was 91%; in [11] (at 5 µM), 68%; in experiment [12] (at 1 µM), 68%; in experiment [12] (at 5 µM) it was 41%. Further, the % of control in [13] (at 1 µM) turned out to be 97%; in [13] (at 5 µM), 101%.
